Measured values from patent US6613781B2, “Heterocyclylaklylindole or -azaindole compounds as 5-hydroxytryptamine-6 ligands” (Wyeth, priority 2000, dated 2003).
Where a name gives a salt, the structure may show the parent alone.

Biological target: T1, human cloned 5-HT6 receptors (Homo sapiens, UniProt P50406)
T1 construct: expressed in transfected cells; host or cells: Hela cells
T1 sequence (P50406 whole entry): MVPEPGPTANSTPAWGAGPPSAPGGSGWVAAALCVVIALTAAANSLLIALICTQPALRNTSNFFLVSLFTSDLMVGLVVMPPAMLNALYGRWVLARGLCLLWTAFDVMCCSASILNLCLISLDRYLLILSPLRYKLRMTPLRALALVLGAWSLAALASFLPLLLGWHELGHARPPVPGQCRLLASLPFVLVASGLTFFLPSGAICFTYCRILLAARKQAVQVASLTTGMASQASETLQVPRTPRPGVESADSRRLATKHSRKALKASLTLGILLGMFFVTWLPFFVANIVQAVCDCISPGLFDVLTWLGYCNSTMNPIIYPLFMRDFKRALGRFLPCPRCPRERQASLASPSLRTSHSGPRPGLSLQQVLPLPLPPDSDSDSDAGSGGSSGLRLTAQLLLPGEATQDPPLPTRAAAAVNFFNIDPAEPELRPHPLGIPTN
Assay: Comparative evaluation of 5-HT6 binding affinity ([3H]-LSD displacement, Hela cell membranes)
Conditions: not given
Description: The affinity of test compounds for the serotonin 5-HT6 receptor is evaluated in the following manner. Cultured Hela cells expressing human cloned 5-HT6 receptors are harvested and centrifuged at low speed (1,000×g) for 10.0 min to remove the culture media. The harvested cells are suspended in half volume of fresh physiological phosphate buffered saline solution and recentrifuged at the same speed. This operation is repeated. The collected cells are then homogenized in ten volumes of 50 mM Tris.HCl (pH 7.4) and 0.5 mM EDTA. The homogenate is centrifuged at 40,000×g for 30.0 min and the precipitate is collected. The obtained pellet is resuspended in 10 volumes of Tris.HCl buffer and recentrifuged at the same speed. The final pellet is suspended in a small volume of Tris.HCl buffer and the tissue protein content is determined in aliquots of 10-25 μl volumes. Bovine Serum Albumin is used as the standard in the protein determination according to the method described in Lowry et al., J. Biol. Chem., 193:265 (1951). The volume of the suspended cell membranes is adjusted to give a tissue protein concentration of 1.0 mg/ml of suspension. The prepared membrane suspension (10 times concentrated) is aliquoted in 1.0 ml volumes and stored at −70° C. until used in subsequent binding experiments.
Binding experiments are performed in a 96 well microtiter plate format, in a total volume of 200 μl. […] The test compounds are added in 20.0 μl volume.
The reaction is allowed to proceed in the dark for 120 min at room temperature, at which time, the bound ligand-receptor complex is filtered off on a 96 well unifilter with a Packard Filtermate® 196 Harvester. The bound complex caught on the filter disk is allowed to air dry and the radioactivity is measured in a Packard TopCount® equipped with six photomultiplier detectors, after the addition of 40.0 μl Microscint®-20 scintillant to each shallow well. The unifilter plate is heat-sealed and counted in a PackardTopCount® with a tritium efficiency of 31.0%.
Binding in the presence of varying concentrations of test compound is expressed as a percentage of specific binding in the absence of test compound. The results are plotted as log % bound versus log concentration of test compound. […] A linear regression line of data points is plotted, from which the IC50 value is determined and the Ki value is determined based upon the following equation: […]
where L is the concentration of the radioactive ligand used and KD is the dissociation constant of the ligand for the receptor, both expressed in nM.
For `CC(C)C[C@H]1C(=O)N2CCC[C@H]2[C@]2(O)O[C@](NC(=O)[C@@H]3C=C4c5cccc6[nH]c(Br)c(c56)C[C@H]4N(C)C3)(C(C)C)C(=O)N12` [Bromocriptine, reference compound], the Ki was 23 nM.

Same assay, conditions: [3H]-LSD 3.0 nM; membranes of Hela cells expressing human cloned 5-HT6 receptors; 120 min, room temperature; read-out: 5-HT6 Binding Ki
Molecule `O=S(=O)(c1ccccc1)n1cc(CC2CCNCC2)c2cc(F)ccc21` [Example 6, 5-Fluoro-1-phenylsulfonyl)-3-(4-piperidinylmethyl)-1H-indole hydrochloride] has a Ki of 12 nM. For `Nc1ccc(S(=O)(=O)n2cc(CC3CCNCC3)c3cc(F)ccc32)cc1` [Example 7, 4-{[5-Fluoro-3-(4-piperidinylmethyl)-1H-indole-1-yl]sulfonyl}aniline], the Ki was 1 nM. `O=S(=O)(c1cccc2ccccc12)n1cc(CC2CCNCC2)c2cc(F)ccc21` [Example 10, 5-Fluoro-1-(1-naphthylsulfonyl)-3-(4-piperidinylmethyl)-1H-indole hydrochloride] gave a Ki of 13 nM. Work on `COc1ccc(S(=O)(=O)n2cc(CC3CCNCC3)c3cc(F)ccc32)cc1OC` [Example 18, 1-[(3,4-dimethoxyphenyl)sulfonyl]-5-fluoro-3-(piperidin-4-ylmethyl)-1H-indole] yielded a Ki of 8 nM. `N#Cc1ccc(S(=O)(=O)n2cc(CC3CCNCC3)c3cc(F)ccc32)cc1` [Example 19, 4-{[5-fluoro-3-(piperidin-4-ylmethyl)-1H-indol-1-yl]sulfonyl}benzonitrile] gave a Ki of 162 nM. Molecule `O=S(=O)(c1cccc2cccnc12)n1cc(CC2CCNCC2)c2cc(F)ccc21` [Example 20, 8-{[5-fluoro-3-(piperidin-4-ylmethyl)-1H-indol-1-yl]sulfonyl}quinoline] has a Ki of 2 nM. Molecule `O=S(=O)(c1ccccc1)n1cc(CC2CCNCC2)c2ccc(F)cc21` [Example 21, 6-flouro-1-(phenylsulfonyl)-3-(4-piperidinylmethyl)-1H-indole] has a Ki of 13 nM. `O=S(=O)(c1cccc2ccccc12)n1cc(CC2CCNCC2)c2ccc(F)cc21` [Example 22, 6-flouro-1-(1-naphthylsulfonyl)-3-(4-piperidinylmethyl)-1H-indole] showed a Ki of 24 nM. With `COc1ccc(S(=O)(=O)n2cc(CC3CCNCC3)c3ccc(F)cc32)cc1OC` [Example 23, 6-flouro-1-(3,4-dimethoxyphenylsulfonyl)-3-(4-piperidinylmethyl)-1H-indole] the Ki was 19 nM. `O=S(=O)(c1ccccc1Cl)n1cc(CC2CCNCC2)c2ccc(F)cc21` [Example 24, 6-flouro-1-(2-chlorophenylsulfonyl)-3-(4-piperidinylmethyl)-1H-indole] showed a Ki of 13 nM. In the case of `O=S(=O)(c1ccc(Cl)s1)n1cc(CC2CCNCC2)c2ccc(F)cc21` [Example 25, 6-flouro-1-(5-chlorothien-2-ylsulfonyl)-3-(4-piperidinylmethyl)-1H-indole], the Ki is reported as 18 nM. For `O=S(=O)(c1ccccc1F)n1cc(CC2CCNCC2)c2ccc(F)cc21` [Example 26, 6-flouro-1-(2-fluorophenylsulfonyl)-3-(4-piperidinylmethyl)-1H-indole], the Ki was 17 nM. In the case of `O=S(=O)(c1cccc(F)c1)n1cc(CC2CCNCC2)c2ccc(F)cc21` [Example 27, 6-flouro-1-(3-fluorophenylsulfonyl)-3-(4-piperidinylmethyl)-1H-indole], the Ki is reported as 29 nM. In the case of `Nc1ccc(S(=O)(=O)n2cc(CC3CCNCC3)c3ccc(F)cc32)cc1` [Example 28], the Ki is reported as 3 nM. `CN1CCN(C2=Nc3ccccc3Oc3ccc(Cl)cc32)CC1` [Loxapine, reference compound] showed a Ki of 41.4 nM.

Tested on: not given
Assay: not given
Conditions: not given
For `COc1ccc(S(=O)(=O)n2cc(CC3CCNCC3)c3cc(F)ccc32)cc1OC` (as salt: hydrochloride) [Example 18, 1-[(3,4-dimethoxyphenyl)sulfonyl]-5-fluoro-3-(piperidin-4-ylmethyl)-1H-indole], the melting point was 246 °C. In the case of `N#Cc1ccc(S(=O)(=O)n2cc(CC3CCNCC3)c3cc(F)ccc32)cc1` (as salt: hydrochloride) [Example 19, 4-{[5-fluoro-3-(piperidin-4-ylmethyl)-1H-indol-1-yl]sulfonyl}benzonitrile], the melting point is reported as 249 °C. Work on `O=S(=O)(c1cccc2cccnc12)n1cc(CC2CCNCC2)c2cc(F)ccc21` (as salt: hydrochloride) [Example 20, 8-{[5-fluoro-3-(piperidin-4-ylmethyl)-1H-indol-1-yl]sulfonyl}quinoline] yielded a melting point of 245 °C. `Nc1ccc(S(=O)(=O)n2cc(CC3CCNCC3)c3ccc(F)cc32)cc1` (as salt: hydrochloride) [Example 28] showed a melting point of 198 to 200 °C.
